Test results reported in patent US7084178B2, “Antiamyloid phenylsulfonamides: N-cycloalkylcarboxamides derivatives” (Bristol-Myers Squibb Company, priority 2003, dated 2006).

system: γ-secretase; experiment: Competitive in vitro binding assay with [3H]-Compound A and membranes from THP-1 cells; settings: displacement of [3H]-Compound A, THP-1 cell membranes, 23° C., 1.3 hr; read-out: Binding affinity (IC50 in nM)
Description: Competitive in vitro binding assays can be used to identify compounds that inhibit γ-secretase activity. For example, [^3H]-Compound A can be used for binding assays with membranes from THP-1 cells (Seiffert, D.; Bradley, J. et al., J. Biol. Chem. 2000, 275, 34086–34091). Compound A is (2R,3S) N1-[(3S)-hexahydro-1-(3-phenoxybenzyl)-2-oxo-1H-azepin-3-yl]-2-(2methylpropyl)-3-(propyl)-butanediamide, which is described in U.S. patent U.S. Pat. No. 6,331,408 (Dec. 18, 2001); PCT Publication WO 00/28331; PCT Publication WO 00/07995; and Seiffert, D., Bradley, J. et al., J. Biol. Chem. 2000, 275. 34086–34091.
To evaluate the compounds of this invention using this assay, THP-1 cells were grown in spinner cultures in RPMI 1640 containing L-glutamine and 10 μM β-mercaptoethanol to a density of 5×10^5 cells/ml. Cells were harvested by centrifugation and cell pellets were quick frozen in dry ice/ethanol and stored at −70° C. prior to use. The pellets of approximately 2×10^4 THP-1 cells were homogenized using a Brinkman Polytron at setting 6 for 10 sec. The homogenate was centrifuged at 48,000×g for 12 min, and the resulting pellet was washed by repeating the homogenization and centrifugation. The final cell pellet was resuspended in buffer to yield a protein concentration of approximately 0.5 mg/ml. Assays were initiated by the addition of 150 μl of membrane suspension to 150 μl of assay buffer containing 0.064 μCi of radioligand and various concentrations of unlabeled compounds. Binding assays were performed in duplicate in polypropylene 96-well plates in a final volume of 0.3 ml containing 50 mM Hepes, pH 7.0, and 5% dimethyl sulfoxide. Nonspecific binding was defined using incubations with 300 nM compound A (Seiffert, D., Bradley, J. et al., J. Biol. Chem. 2000, 275, 34086–34091). After incubating at 23° C. for 1.3 hr, bound ligand was separated from free radioligand by filtration over GFF glass fiber filters presoaked in 0.3% ethyleneimine polymer solution. Filters were washed three times with 0.3 ml of ice cold phosphate-buffered saline, pH 7.0, containing 0.1% Triton X-100. Filter-bound radioactivity was measured by scintillation counting. IC50 values were then determined and used to calculate Ki values using the Cheng-Prusoft correction for IC50 values.
The compounds of this invention were evaluated in the assay described above, as well as with other evaluation methods, and found to be inhibitors of γ-secretase. In the table, an inhibitory concentration (IC50) of less than or equal to 50 nM is represented by +++; between 50 nM and 500 nM by ++; between 500 nM and 10000 nM by +.

| IC50 [nM] | Molecule |
| --- | --- |
| 50 to 500 | CCNC(=O)c1ccc(CN([C@@H]2CCC[C@@H]2C(N)=O)S(=O)(=O)c2ccc(Cl)cc2)cc1 [Example 31, 4-[[(1R,2S)-(2-Carbamoyl-cyclopentyl)-(4-chlorobenzenesulfonyl)-amino]-methyl]-N-ethyl-benzamide] |
| 50 to 500 | COC(=O)c1ccc(CN([C@@H]2CCCCC[C@@H]2C(N)=O)S(=O)(=O)c2ccc(Cl)cc2)cc1 (relative stereo) [Example 20, cis-4-[[(2-Carbamoyl-cycloheptyl)-(4-chlorobenzenesulfonyl)-amino]-methyl]-benzoic acid methyl ester] |
| ≤ 50 | COC(=O)c1ccc(CN([C@@H]2CCCC[C@@H]2C(N)=O)S(=O)(=O)c2ccc(Cl)cc2)cc1 [Example 1, 4-[[(1R,2S)-(2-Carbamoyl-cyclohexyl)-(4-chlorobenzenesulfonyl)-amino]-methyl]-benzoic acid methyl ester] |
| 500 to 10000 | NC(=O)[C@@H]1CCCCC[C@@H]1N(Cc1ccc(-n2cccn2)cc1)S(=O)(=O)c1ccc(Cl)cc1 (relative stereo) [Example 23, cis-2-[(4-Chlorobenzenesulfonyl)-(4-pyrazol-1-yl-benzyl)-amino]-cycloheptanecarboxylic acid amide] |
| ≤ 50 | CCNC(=O)c1ccc(CN([C@@H]2CCCC[C@@H]2C(N)=O)S(=O)(=O)c2ccc(Cl)cc2)cc1 [Example 2, 4-[[(1R,2S)-(2-Carbamoyl-cyclohexyl)-(4-chlorobenzenesulfonyl)-amino]-methyl]-N-ethyl-benzamide] |
| 50 to 500 | CCNC(=O)c1ccc(CN([C@@H]2CCCC[C@H]2C(N)=O)S(=O)(=O)c2ccc(Cl)cc2)cc1 [Example 30, 4-[[(1R,2R)-(2-Carbamoyl-cyclohexyl)-(4-chlorobenzenesulfonyl)-amino]-methyl]-N-ethyl benzamide] |
| 500 to 10000 | CCNC(=O)c1ccc(CN([C@@H]2CCCC[C@@H]2C(N)=O)S(=O)(=O)c2ccc(Cl)cc2)cc1 [Example 28, 4-[[(1R,2S)-(2-Carbamoyl-cyclohexyl)-(4-chlorobenzenesulfonyl)-amino]-methyl]-N-ethyl benzamide] |
| 500 to 10000 | CCNC(=O)c1ccc(CN([C@@H]2CCC[C@H]2C(N)=O)S(=O)(=O)c2ccc(Cl)cc2)cc1 [Example 32, 4-[[(1R,2R)-(2-Carbamoyl-cyclopentyl)-(4-chlorobenzenesulfonyl)-amino]-methyl]-N-ethyl-benzamide] |
| 50 to 500 | CCNC(=O)c1ccc(CN([C@H]2CCCC[C@@H]2C(N)=O)S(=O)(=O)c2ccc(Cl)cc2)cc1 [Example 29, 4-[[(1S,2S)-(2-Carbamoyl-cyclohexyl)-(4-chlorobenzenesulfonyl)-amino]-methyl]-N-ethyl benzamide] |

system: Aβ formation in H4 cells stably transfected to overexpress the HPLAP-APP fusion protein; experiment: Inhibition of β-amyloid peptide formation in human H4 cells; format: cell-based; settings: H4 cells overexpressing HPLAP-APP, 18 hrs at 37° C.
Experimental: γ-Secretase inhibitors can also be evaluated using in vitro assays based on the inhibition of Aβ formation in cultured cells. Cultured human cell lines, such as HEK293 and H4 cells, which express APP and γ-secretase activity or transfected derivative cell lines that overexpress wild-type APP, mutant APP, or APP fusion proteins will secrete Aβ peptides into the culture media that can be quantified as previously outlined (Dovey, H., John, V. et al., J. Neurochem. 2001, 76, 173–181). The incubation of these cultured cells with γ-secretase inhibitors decreases the production of Aβ peptides. For instance, H4 cells stably transfected to overexpress the HPLAP-APP fusion protein described above were grown as above, detached, and adjusted to 2×10^5 cells/ml. 100 μl of the resulting suspension was then added to each well of a 96-well plate. After 4 hrs, the media was removed and replaced with 100 μl serum-free media containing various dilutions of the test compound. Plates were then incubated for 18 hrs at 37° C. and a 100 μl aliquot of the tissue culture supernatant was removed for determination of Aβ levels using time-resolved fluorescence of the homogenous sample as outlined above. Alternately, the other methods described above for Aβ determination could be used. The extent of Aβ inhibition was used to calculate the IC50 value for the test compound.
In Table 2, an inhibitory concentration (IC50) of less than or equal to 50 nM is represented by +++; between 50 nM and 500 nM by ++; between 500 nM and 50000 nM by +.

| IC50 [nM] | Molecule |
| --- | --- |
| ≤ 50 | (1S,2R)-2-[(4- Chlorobenzenesulfonyl)-[4-( -hydroxy-1-methyl-ethyl)-benzyl]-amino]-cyclohexanecarboxylic acid amide [Example 6] |

same assay, conditions: Homo sapiens; H4 cells overexpressing HPLAP-APP, 18 hrs at 37° C.

| IC50 [nM] | Molecule |
| --- | --- |
| ≤ 50 | NC(=O)[C@H]1CCCC[C@H]1N(Cc1ccc(Cl)s1)S(=O)(=O)c1ccc(Cl)cc1 [Example 7, (1S,2R)-2-[(4-Chlorobenzenesulfonyl)-(5-chloro-thiophen-2-ylmethyl)-amino]-cyclohexanecarboxylic acid amide] |
| ≤ 50 | COC(=O)c1ccc(CN([C@@H]2CCCC[C@@H]2C(N)=O)S(=O)(=O)c2ccc(Cl)cc2)cc1 [Example 1, 4-[[(1R,2S)-(2-Carbamoyl-cyclohexyl)-(4-chlorobenzenesulfonyl)-amino]-methyl]-benzoic acid methyl ester] |
| ≤ 50 | COC(=O)c1ccc(CN([C@@H]2CCCC[C@@H]2C(N)=O)S(=O)(=O)c2ccc(Cl)cc2)cc1 (relative stereo) [Example 13, cis-4-[[(2-Carbamoyl-cyclohexyl)-(4-chlorobenzenesulfonyl)-amino]-methyl]-benzoic acid methyl ester] |
| 500 to 50000 | N#Cc1ccc(CN([C@H]2CCCCC[C@H]2C(N)=O)S(=O)(=O)c2ccc(Cl)cc2)cc1 (relative stereo) [Example 21, cis-2-[(4-Chlorobenzenesulfonyl)-(4-cyano-benzyl)-amino]-cycloheptanecarboxylic acid amide] |
| ≤ 50 | CCNC(=O)c1ccc(CN([C@@H]2CCCC[C@@H]2C(N)=O)S(=O)(=O)c2ccc(Cl)cc2)cc1 [Example 2, 4-[[(1R,2S)-(2-Carbamoyl-cyclohexyl)-(4-chlorobenzenesulfonyl)-amino]-methyl]-N-ethyl-benzamide] |
| 50 to 500 | NC(=O)[C@H]1CCCC[C@H]1N(Cc1ccc(OC(F)(F)F)c(Cl)c1)S(=O)(=O)c1ccc(Cl)cc1 [Example 4, (1S,2R)-2-[(4-Chlorobenzenesulfonyl)-(3-chloro-4-trifluoromethoxy-benzyl)-amino]-cyclohexanecarboxylic acid amide] |
| 50 to 500 | NC(=O)[C@@H]1CCCC[C@@H]1N(Cc1ccc(C(F)(F)F)cc1)S(=O)(=O)c1ccc(Cl)cc1 (relative stereo) [Example 10, cis-2-[(4-Chlorobenzenesulfonyl)-(4-trifluoromethyl-benzyl)-amino]-cyclohexanecarboxylic acid amide] |
| ≤ 50 | NC(=O)[C@H]1CCCC[C@H]1N(Cc1ccc(SC(F)(F)F)cc1)S(=O)(=O)c1ccc(Cl)cc1 [Example 8, (1S,2R)-2-[(4-Chlorobenzenesulfonyl)-(4-trifluoromethylsulfanyl-benzyl)-amino]-cyclohexanecarboxylic acid amide] |
| 50 to 500 | NC(=O)[C@H]1CCCC[C@H]1N(Cc1ccc(F)c(Cl)c1)S(=O)(=O)c1ccc(Cl)cc1 [Example 5, (1S,2R)-2-[(4-Chlorobenzenesulfonyl)-(3-chloro-4fluoro-benzyl)-amino]-cyclohexanecarboxylic acid amide] |
| 50 to 500 | CC(C)(C)c1ccc(CN([C@@H]2CCCC[C@@H]2C(N)=O)S(=O)(=O)c2ccc(Cl)cc2)cc1 [Example 3, (1S,2R)-2-[(4-tert-Butyl-benzyl)-(4-chlorobenzenesulfonyl)-amino]-cyclohexanecarboxylic acid amide] |
| ≤ 50 | CCNC(=O)c1ccc(CN([C@H]2CCCCC[C@H]2C(N)=O)S(=O)(=O)c2ccc(Cl)cc2)cc1 (relative stereo) [Example 24, cis-2-[(4-Chlorobenzenesulfonyl)-(4-ethylcarbamoyl-benzyl)-amino]-cycloheptanecarboxylic acid amide] |
